The subject of test [1] is A. baumannii ATCC BAA 1797. The experiment in a line: MIC against clinical isolate. As to conditions: for MIC: Acinetobacter baumannii; for Antibacterial activity (in words): clinical isolate ATCC BAA1797. It is filed as cell-based, Acinetobacter baumannii. The protocol:
(§1) Subsequently, the activities of the disclosed compounds were evaluated against four clinical isolates of A. baumannii (ATCC 17961, ATCC BAA1793, ATCC BAA1797 and ATTC BAA1800). All four A. baumannii isolates were resistant to compounds 3, 22, 23, and 27. Strain ATCC 17961 was susceptible to both 26 and 1, indicating lack of or low β-lactamase content and/or activity.

The subject of test [2] is A. baumannii ATCC BAA 1793. The experiment in a line: MIC against clinical isolate. It counts as cell-based, Acinetobacter baumannii. As to conditions: for MIC: Acinetobacter baumannii; for Antibacterial activity (in words): clinical isolate ATCC BAA1793. The protocol:
as §1

The subject of test [3] is A. baumannii ATCC BAA 1800. Put plainly: MIC against clinical isolate. It is filed as cell-based, Acinetobacter baumannii. As to conditions: for MIC: Acinetobacter baumannii; for Antibacterial activity (in words): clinical isolate ATCC BAA1800. The protocol: as §1
Test [4] deals with A. baumannii ATCC 17961. The experiment in a line: MIC against clinical isolate. It counts as cell-based, Acinetobacter baumannii. As to conditions: for MIC: Acinetobacter baumannii; for Antibacterial activity (in words): clinical isolate ATCC 17961. The protocol:
as §1

Test [5] concerns A. baumannii ATCC 17978 pNT255. Put plainly: MIC, antimicrobial susceptibility assay, strain with pNT255 vector. It counts as cell-based. As to conditions: Acinetobacter baumannii, ATCC17978, read-out: Activity (MIC). The source says:
(§2) For this purpose, A. baumannii ATCC 17978, which produces a small amount of the chromosomally-encoded enzyme, and the same strain that produces a large amount of ADC-1 from the pNT255 vector were used (Table 1).

The subject of test [6] is A. baumannii ATCC 17978 pNT225: ADC-1. Put plainly: MIC, antimicrobial susceptibility assay, strain with plasmid-encoded ADC-1 β-lactamase. As to conditions: for MIC: Acinetobacter baumannii, ATCC17978, read-out: Activity (MIC). It counts as cell-based, Acinetobacter baumannii.
Description: as §2

Test [7] has as its system P. aeruginosa KW799/wt. The experiment in a line: MIC against other Gram-negative bacteria. As to conditions: for Antibacterial activity (in words): Pseudomonas aeruginosa KW799.
Description: (§3) This plasmid was then introduced by electroporation into A. baumannii ATCC 17978 for MIC measurements. MIC analyses were performed using iron depleted media as described previously (Ghosh, J. Med. Chem., 2017, 60, 4577-4583).
Test [8] has as its system E. coli DC0. The experiment in a line: MIC against other Gram-negative bacteria. As to conditions: for Antibacterial activity (in words): Escherichia coli DC0; for MIC: Escherichia coli, DC0, read-out: Activity (MIC).
Description: as §3
The test system of test [9] is A. baumannii ATCC 17978. Put plainly: MIC, antimicrobial susceptibility assay in iron depleted media. It is filed as cell-based, Acinetobacter baumannii. As to conditions: for Antibacterial activity (in words): A. baumannii ATCC 17978, low amount of ADC-1; for MIC: Acinetobacter baumannii, ATCC17978, A. baumannii ATCC 17978, small amount of chromosomal ADC-1, iron depleted media, average of three measurements.
Description: as §2

The mark [10] stands for this setting: Pseudomonas aeruginosa, KW799/WT, read-out: Activity (MIC).
[11] abbreviates: BAA1797, A. baumannii ATCC BAA 1797, read-out: Activity (MIC).
[12] abbreviates: BAA1793, A. baumannii ATCC BAA 1793, read-out: Activity (MIC).
[13] abbreviates: BAA1800, A. baumannii ATCC BAA 1800, read-out: Activity (MIC).
The mark [14] stands for this setting: ATCC17961, A. baumannii ATCC 17961, read-out: Activity (MIC).

SMILES strings stand for the structures. In brackets after ≈: the same amount, converted by molar mass. Like-named read-outs stand apart in the source and are kept apart here. Some results are limits rather than exact numbers.

As to `CC(=O)NC[C@H]1CN(c2ccc(N3CCN(C(=O)CN)CC3)c(F)c2)C(=O)O1` [Compound 3, (S)—N-((3-(3-Fluoro-4-(4-glycylpiperazin-1-yl)phenyl)-2-oxooxazolidin-5-yl)methyl)acetamide], the MIC in test [1] (BAA1797, read-out: Activity (MIC)) is greater than 50 µM; in test [2] (BAA1793, read-out: Activity (MIC)), greater than 50 µM; in test [3] (BAA1800, read-out: Activity (MIC)), greater than 50 µM; in test [4] (ATCC17961, read-out: Activity (MIC)) it was greater than 50 µM; in test [5] it was greater than 500 µM; in test [6] it was greater than 500 µM. Further, the MIC in test [7] (setting [10]) is greater than 50 µM; in test [8], greater than 50 µM; in test [9] it was greater than 500 µM. The “Antibacterial activity (in words)” value in test [1] is reported as “resistant”; in test [2], “resistant”; in test [3], “resistant”; in test [4], “resistant”; in test [7], “not active”; in [8], “not active”. The “Antibacterial activity (in words)” value in test [9] is reported as “not active”.

Take `CC(=O)NC[C@H]1CN(c2ccc(N3CCN(C(=O)CO)CC3)c(F)c2)C(=O)O1` [Compound 17, eperezolid, reference compound]: the MIC in test [5], in [6] and in [9] was greater than 50 µM throughout. Further, the “Antibacterial activity (in words)” value in test [9] is reported as “not active”.

For the compound `CC(=O)NC[C@H]1CN(c2ccc(N3CCN(C(=O)CNC(=O)OCC4=C(C(=O)O)N5C(=O)[C@@H](NC(=O)C(N)c6ccccc6)[C@H]5SC4)CC3)c(F)c2)C(=O)O1` (stereo partly drawn) [Compound 22, (6R,7R)-3-((((2-(4-(4-((S)-5-(Acetamidomethyl)-2-oxooxazolidin-3-yl)-2-fluorophenyl)piperazin-1-yl)-2-oxoethyl)carbamoyl)oxy)methyl)-7-(2-amino-2-phenylacetamido)-8-oxo-5-thia-1-azabicyclo[4.2.0]oct-2-ene-2-carboxylic acid], the MIC in test [1] (setting [11]), in [2] (setting [12]), in [3] (setting [13]), in test [4] (setting [14]), in test [5] and in [6] was greater than 50 µM each time. For the same compound, the MIC in [7] (setting [10]), in test [8] and in [9] was greater than 50 µM in each case. The “Antibacterial activity (in words)” value is listed as “resistant” in [1]; “resistant” in test [2]; “resistant” in test [3]; “resistant” in [4]; “not active” in test [7]; “not active” in test [8]. Besides, the “Antibacterial activity (in words)” value in test [9] is “not active”.

Take `CC(=O)OCC1=C(C(=O)O)N2C(=O)[C@@H](NC(=O)C(NC(=O)CN(CCCCNC(=O)c3cccc(O)c3O)C(=O)c3cccc(O)c3O)c3ccccc3)[C@H]2SC1` (stereo partly drawn) [Compound 26, (6R,7R)-3-(Acetoxymethyl)-7-(2-(2-(N-(4-(2,3-dihydroxybenzamido)butyl)-2,3-dihydroxybenzamido)acetamido)-2-phenylacetamido)-8-oxo-5-thia-1-azabicyclo[4.2.0]oct-2-ene-2-carboxylic acid]: the MIC in test [1] (setting [11]) was greater than 50 µM; in [2] (setting [12]) it was 12.5 µM (≈ 10.1 µg/mL); in [3] (setting [13]) it was 25 µM (≈ 20.1 µg/mL); in test [4] (setting [14]), 0.8 µM (≈ 0.645 µg/mL); in test [5] it was 0.4 µM (≈ 0.322 µg/mL); in test [6] it was greater than 50 µM. In addition, the MIC in test [7] (setting [10]) was 0.4 µM (≈ 0.322 µg/mL); in test [7] (vs P. aeruginosa KW799/wt) it was 0.4; in test [8], less than 0.025 µM; in test [9], 0.4 µM (≈ 0.322 µg/mL). For the same compound, the “Antibacterial activity (in words)” value in test [1] is “resistant”; in [2], “detectable activity”; in [3], “detectable activity”; in test [4] it was “susceptible”; in test [6] (A. baumannii with plasmid-encoded β-lactamase (pNT255:adc1)) it was “highly resistant”; in test [7], “remarkably active”. Also, the “Antibacterial activity (in words)” value in [8] and in [9] was “remarkably active” throughout.

Values taken from patent US12544384B2, “Antibiotic conjugates” (priority 2018, dated 2026).
